In PMC12300041, “Tricyclic Isatin Derivatives as Anti-Inflammatory Compounds with High Kinase Binding Affinity” (Molecules, 2025):

Assays:
Test in all cases: KINOMEscan
Type in all cases: binding
FLT3 (D835H) = biological target: T1, FLT3 (D835H) (Homo sapiens, UniProt P36888, D835H)
T1 construct: purchased Eurofins DiscoverX KINOMEscan
How it was run: (§1)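 Kd determination: 12-pt half-log series, top 33 μM; 1 h binding, RT; unbound kinase pulled down on immobilized ligand, measured by qPCR.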

CAMK2B = biological target: T2, CAMK2B (Homo sapiens, UniProt Q13554)
T2 construct: purchased Eurofins DiscoverX KINOMEscan
How it was run: as §1

[1] = biological target: T3, TYK2 (JH2 domain-pseudokinase) (Homo sapiens, UniProt P29597)
T3 construct: TYK2 (JH2 domain-pseudokinase); purchased Eurofins DiscoverX KINOMEscan
How it was run: as §1

PCTK3 = biological target: T4, PCTK3 (Homo sapiens, UniProt Q07002)
T4 construct: purchased Eurofins DiscoverX KINOMEscan
T4 sequence (Q07002 whole entry): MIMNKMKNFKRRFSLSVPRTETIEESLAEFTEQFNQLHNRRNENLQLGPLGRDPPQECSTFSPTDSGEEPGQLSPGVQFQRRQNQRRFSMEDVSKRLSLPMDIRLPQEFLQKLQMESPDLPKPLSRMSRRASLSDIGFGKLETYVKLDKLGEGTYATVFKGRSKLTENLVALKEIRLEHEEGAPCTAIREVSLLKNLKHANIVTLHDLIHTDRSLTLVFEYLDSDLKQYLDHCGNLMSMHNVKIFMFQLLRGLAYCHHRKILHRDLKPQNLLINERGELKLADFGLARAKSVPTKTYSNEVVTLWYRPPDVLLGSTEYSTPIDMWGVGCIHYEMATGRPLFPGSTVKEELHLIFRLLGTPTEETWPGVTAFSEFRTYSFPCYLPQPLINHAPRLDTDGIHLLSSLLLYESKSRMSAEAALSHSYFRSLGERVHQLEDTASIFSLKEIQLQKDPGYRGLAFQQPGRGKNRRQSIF
How it was run: as §1

CDC2L5 = biological target: T5, CDC2L5 (Homo sapiens, UniProt Q14004)
T5 construct: purchased Eurofins DiscoverX KINOMEscan
T5 sequence (Q14004 whole entry): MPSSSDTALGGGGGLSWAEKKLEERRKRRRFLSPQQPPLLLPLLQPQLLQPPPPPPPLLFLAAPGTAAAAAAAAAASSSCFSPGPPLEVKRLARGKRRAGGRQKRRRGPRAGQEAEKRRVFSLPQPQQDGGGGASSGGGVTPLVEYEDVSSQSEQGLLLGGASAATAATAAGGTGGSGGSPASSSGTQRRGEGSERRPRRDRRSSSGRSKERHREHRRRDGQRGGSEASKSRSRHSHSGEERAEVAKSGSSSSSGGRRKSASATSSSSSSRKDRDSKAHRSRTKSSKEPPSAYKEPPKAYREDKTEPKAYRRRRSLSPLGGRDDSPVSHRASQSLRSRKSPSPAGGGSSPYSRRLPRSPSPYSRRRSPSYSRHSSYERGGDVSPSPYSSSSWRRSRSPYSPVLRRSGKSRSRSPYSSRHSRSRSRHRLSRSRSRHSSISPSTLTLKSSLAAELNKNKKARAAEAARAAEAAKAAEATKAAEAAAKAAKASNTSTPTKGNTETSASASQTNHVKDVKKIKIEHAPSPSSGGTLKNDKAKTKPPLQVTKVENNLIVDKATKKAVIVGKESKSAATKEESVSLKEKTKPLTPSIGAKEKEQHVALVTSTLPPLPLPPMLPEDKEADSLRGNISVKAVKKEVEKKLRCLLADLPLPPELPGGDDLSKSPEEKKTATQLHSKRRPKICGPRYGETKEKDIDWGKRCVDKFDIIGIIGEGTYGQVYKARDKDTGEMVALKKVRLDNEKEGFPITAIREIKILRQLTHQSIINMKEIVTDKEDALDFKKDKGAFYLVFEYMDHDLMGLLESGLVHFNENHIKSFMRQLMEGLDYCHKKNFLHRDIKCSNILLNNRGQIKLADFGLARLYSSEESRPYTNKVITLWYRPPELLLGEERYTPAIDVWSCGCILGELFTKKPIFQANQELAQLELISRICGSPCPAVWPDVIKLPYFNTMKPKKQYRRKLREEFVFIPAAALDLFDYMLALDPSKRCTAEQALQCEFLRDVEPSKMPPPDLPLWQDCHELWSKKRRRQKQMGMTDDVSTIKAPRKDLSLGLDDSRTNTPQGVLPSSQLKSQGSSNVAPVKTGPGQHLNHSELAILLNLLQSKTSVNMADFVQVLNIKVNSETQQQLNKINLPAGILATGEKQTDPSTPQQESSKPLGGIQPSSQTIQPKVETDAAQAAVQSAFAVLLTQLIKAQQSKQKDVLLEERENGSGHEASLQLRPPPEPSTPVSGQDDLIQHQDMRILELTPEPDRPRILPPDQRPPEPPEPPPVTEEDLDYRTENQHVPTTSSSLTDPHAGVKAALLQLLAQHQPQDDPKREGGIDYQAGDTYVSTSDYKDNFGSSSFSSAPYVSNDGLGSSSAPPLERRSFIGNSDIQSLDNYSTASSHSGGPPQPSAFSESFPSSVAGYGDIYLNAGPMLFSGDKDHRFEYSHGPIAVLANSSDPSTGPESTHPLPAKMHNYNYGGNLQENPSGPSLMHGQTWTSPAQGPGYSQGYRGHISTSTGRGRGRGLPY
How it was run: as §1

IGF1R = biological target: T6, IGF1R (Homo sapiens, UniProt P08069)
T6 construct: purchased Eurofins DiscoverX KINOMEscan
How it was run: (§2)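 Dissociation constants derive from a 12-point, half-log compound titration (highest 33 μM). Each binding reaction ran 1 h at room temperature before qPCR quantification of kinase captured on an immobilized affinity ligand.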

SRPK1 = biological target: T7, SRPK1 (Homo sapiens, UniProt Q96SB4)
T7 construct: purchased Eurofins DiscoverX KINOMEscan
How it was run: as §2

PIK3CA (E545A) = biological target: T8, PIK3CA (E545A) (Homo sapiens, UniProt P42336, E545A)
T8 construct: purchased Eurofins DiscoverX KINOMEscan
How it was run: as §1

TNK2 = biological target: T9, TNK2 (Homo sapiens, UniProt Q07912)
T9 construct: purchased Eurofins DiscoverX KINOMEscan
T9 sequence (Q07912 whole entry): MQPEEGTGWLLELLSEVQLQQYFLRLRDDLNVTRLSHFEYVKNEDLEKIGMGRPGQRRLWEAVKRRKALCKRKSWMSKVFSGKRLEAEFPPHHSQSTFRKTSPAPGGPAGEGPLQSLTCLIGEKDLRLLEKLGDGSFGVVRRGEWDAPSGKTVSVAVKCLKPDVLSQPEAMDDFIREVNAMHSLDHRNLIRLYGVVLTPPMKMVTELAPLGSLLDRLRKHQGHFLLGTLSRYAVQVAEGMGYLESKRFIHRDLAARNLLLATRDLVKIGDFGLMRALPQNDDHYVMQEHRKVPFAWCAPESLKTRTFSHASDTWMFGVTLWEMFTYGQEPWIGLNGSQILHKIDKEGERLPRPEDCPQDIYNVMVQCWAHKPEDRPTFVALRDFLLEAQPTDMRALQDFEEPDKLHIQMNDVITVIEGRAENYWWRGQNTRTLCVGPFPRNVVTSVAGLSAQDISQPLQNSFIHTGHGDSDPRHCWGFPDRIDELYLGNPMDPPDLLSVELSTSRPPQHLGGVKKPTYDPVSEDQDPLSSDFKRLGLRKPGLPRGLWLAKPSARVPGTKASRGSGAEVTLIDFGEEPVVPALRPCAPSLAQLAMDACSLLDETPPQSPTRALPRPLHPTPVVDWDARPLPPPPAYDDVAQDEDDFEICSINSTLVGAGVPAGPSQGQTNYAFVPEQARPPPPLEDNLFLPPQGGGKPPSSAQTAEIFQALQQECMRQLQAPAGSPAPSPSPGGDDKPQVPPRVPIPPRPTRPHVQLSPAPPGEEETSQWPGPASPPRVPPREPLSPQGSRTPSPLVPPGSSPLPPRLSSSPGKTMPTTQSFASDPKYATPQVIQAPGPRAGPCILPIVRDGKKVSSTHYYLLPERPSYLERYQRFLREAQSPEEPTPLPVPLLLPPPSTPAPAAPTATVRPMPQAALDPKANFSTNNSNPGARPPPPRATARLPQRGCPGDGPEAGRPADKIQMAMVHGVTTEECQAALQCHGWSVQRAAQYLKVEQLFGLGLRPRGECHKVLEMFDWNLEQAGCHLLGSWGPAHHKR
How it was run: as §1

EIF2AK1 = biological target: T10, EIF2AK1 (Homo sapiens, UniProt Q9BQI3)
T10 construct: purchased Eurofins DiscoverX KINOMEscan
How it was run: as §1

DLK = biological target: T11, DLK (Homo sapiens, UniProt Q12852)
T11 construct: purchased Eurofins DiscoverX KINOMEscan
How it was run: as §1

MAP3K4 = biological target: T12, MAP3K4 (Homo sapiens, UniProt Q9Y6R4)
T12 construct: purchased Eurofins DiscoverX KINOMEscan
How it was run: as §2

ERK4 = biological target: T13, ERK4 (Homo sapiens, UniProt P31152)
T13 construct: purchased Eurofins DiscoverX KINOMEscan
How it was run: as §2

PIP5K2B = biological target: T14, PIP5K2B (Homo sapiens, UniProt P78356)
T14 construct: purchased Eurofins DiscoverX KINOMEscan
How it was run: as §2

CDK11 = biological target: T15, CDK11 (Homo sapiens, UniProt Q9BWU1)
T15 construct: purchased Eurofins DiscoverX KINOMEscan
How it was run: as §1

CDK2 = biological target: T16, CDK2 (Homo sapiens, UniProt P24941)
T16 construct: purchased Eurofins DiscoverX KINOMEscan
How it was run: as §1

[2] = biological target: T17, RSK2 (Kin. Dom.2-C-term.) (Homo sapiens, UniProt P51812)
T17 construct: RSK2 (Kin. Dom.2-C-term.); purchased Eurofins DiscoverX KINOMEscan
How it was run: as §1

PDPK1 = biological target: T18, PDPK1 (Homo sapiens, UniProt O15530)
T18 construct: purchased Eurofins DiscoverX KINOMEscan
How it was run: as §1

MYLK4 = biological target: T19, MYLK4 (Homo sapiens, UniProt Q86YV6)
T19 construct: purchased Eurofins DiscoverX KINOMEscan
T19 sequence (Q86YV6 whole entry): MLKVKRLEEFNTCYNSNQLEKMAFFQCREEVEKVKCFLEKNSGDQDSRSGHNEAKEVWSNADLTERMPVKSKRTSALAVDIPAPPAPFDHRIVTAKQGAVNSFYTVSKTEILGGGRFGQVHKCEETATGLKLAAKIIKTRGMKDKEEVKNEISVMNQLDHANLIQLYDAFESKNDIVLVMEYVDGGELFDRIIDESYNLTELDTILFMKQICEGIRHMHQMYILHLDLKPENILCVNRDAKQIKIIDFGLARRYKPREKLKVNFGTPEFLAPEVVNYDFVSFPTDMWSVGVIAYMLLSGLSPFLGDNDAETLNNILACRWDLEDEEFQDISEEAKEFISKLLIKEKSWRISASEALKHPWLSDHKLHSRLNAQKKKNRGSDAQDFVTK
How it was run: as §1

YANK1 = biological target: T20, YANK1 (Homo sapiens, UniProt Q8WU08)
T20 construct: purchased Eurofins DiscoverX KINOMEscan
How it was run: as §1

MLK3 = biological target: T21, MLK3 (Homo sapiens, UniProt Q16584)
T21 construct: purchased Eurofins DiscoverX KINOMEscan
T21 sequence (Q16584 whole entry): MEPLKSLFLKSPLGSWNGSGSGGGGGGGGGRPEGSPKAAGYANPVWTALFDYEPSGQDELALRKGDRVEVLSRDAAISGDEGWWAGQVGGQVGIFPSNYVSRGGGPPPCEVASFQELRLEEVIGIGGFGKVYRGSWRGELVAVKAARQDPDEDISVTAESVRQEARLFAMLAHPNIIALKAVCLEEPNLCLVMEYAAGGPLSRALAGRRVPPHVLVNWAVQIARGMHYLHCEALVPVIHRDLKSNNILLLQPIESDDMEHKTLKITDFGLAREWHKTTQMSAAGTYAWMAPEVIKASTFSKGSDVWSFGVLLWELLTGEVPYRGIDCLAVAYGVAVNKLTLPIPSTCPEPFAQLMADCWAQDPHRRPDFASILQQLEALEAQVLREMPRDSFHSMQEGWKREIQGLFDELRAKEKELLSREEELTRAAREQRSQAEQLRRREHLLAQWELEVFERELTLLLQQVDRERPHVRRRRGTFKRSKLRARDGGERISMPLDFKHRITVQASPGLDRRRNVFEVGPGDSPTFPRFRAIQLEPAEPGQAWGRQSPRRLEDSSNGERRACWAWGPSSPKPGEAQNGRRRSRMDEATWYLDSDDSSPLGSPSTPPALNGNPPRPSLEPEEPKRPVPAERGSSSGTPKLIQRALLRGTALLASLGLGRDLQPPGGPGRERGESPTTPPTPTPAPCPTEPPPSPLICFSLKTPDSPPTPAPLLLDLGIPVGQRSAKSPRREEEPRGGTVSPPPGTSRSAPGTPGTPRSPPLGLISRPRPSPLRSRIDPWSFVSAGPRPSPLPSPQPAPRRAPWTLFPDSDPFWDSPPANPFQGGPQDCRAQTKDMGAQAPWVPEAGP
How it was run: as §2

WNK2 = biological target: T22, WNK2 (Homo sapiens, UniProt Q9Y3S1)
T22 construct: purchased Eurofins DiscoverX KINOMEscan
How it was run: as §1

ERK1 = biological target: T23, ERK1 (Homo sapiens, UniProt P27361)
T23 construct: purchased Eurofins DiscoverX KINOMEscan
How it was run: as §1

ABL1 (M351T)-P = biological target: T24, ABL1 (M351T)-P (Homo sapiens, UniProt P00519, M351T)
T24 construct: purchased Eurofins DiscoverX KINOMEscan
How it was run: as §1

MEK3 = biological target: T25, MEK3 (Homo sapiens, UniProt P46734)
T25 construct: purchased Eurofins DiscoverX KINOMEscan
T25 sequence (P46734 whole entry): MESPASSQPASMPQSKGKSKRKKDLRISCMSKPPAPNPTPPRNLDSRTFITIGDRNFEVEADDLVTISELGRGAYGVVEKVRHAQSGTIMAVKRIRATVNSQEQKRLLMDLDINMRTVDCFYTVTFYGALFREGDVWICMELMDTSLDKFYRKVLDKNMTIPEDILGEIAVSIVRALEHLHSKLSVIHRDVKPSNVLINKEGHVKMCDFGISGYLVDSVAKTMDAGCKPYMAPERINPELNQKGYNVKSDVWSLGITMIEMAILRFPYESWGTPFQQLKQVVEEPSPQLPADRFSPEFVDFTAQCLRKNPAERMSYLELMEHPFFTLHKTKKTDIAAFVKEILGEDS
How it was run: as §1

NEK9 = biological target: T26, NEK9 (Homo sapiens, UniProt Q8TD19)
T26 construct: purchased Eurofins DiscoverX KINOMEscan
How it was run: as §1

BRAF (V600E) = biological target: T27, BRAF (V600E) (Homo sapiens, UniProt P15056, V600E)
T27 construct: purchased Eurofins DiscoverX KINOMEscan
How it was run: as §1

ABL1-P = biological target: T28, ABL1-P (Homo sapiens, UniProt P00519)
T28 construct: purchased Eurofins DiscoverX KINOMEscan
How it was run: as §1

KIT (A829P) = biological target: T29, KIT (A829P) (Homo sapiens, UniProt P10721, A829P)
T29 construct: purchased Eurofins DiscoverX KINOMEscan
How it was run: as §1

TAOK3 = biological target: T30, TAOK3 (Homo sapiens, UniProt Q9H2K8)
T30 construct: purchased Eurofins DiscoverX KINOMEscan
How it was run: as §1

CDK7 = biological target: T31, CDK7 (Homo sapiens, UniProt P50613)
T31 construct: purchased Eurofins DiscoverX KINOMEscan
T31 sequence (P50613 whole entry): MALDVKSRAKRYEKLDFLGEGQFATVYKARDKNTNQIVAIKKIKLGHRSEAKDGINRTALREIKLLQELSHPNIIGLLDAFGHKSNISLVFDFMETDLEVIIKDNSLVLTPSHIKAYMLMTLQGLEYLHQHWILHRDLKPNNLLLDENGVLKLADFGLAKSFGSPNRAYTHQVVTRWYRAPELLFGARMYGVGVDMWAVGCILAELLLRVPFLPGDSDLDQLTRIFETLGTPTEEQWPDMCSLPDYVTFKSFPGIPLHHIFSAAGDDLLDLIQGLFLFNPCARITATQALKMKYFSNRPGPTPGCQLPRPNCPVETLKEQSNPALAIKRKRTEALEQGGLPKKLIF
How it was run: as §1

BRSK1 = biological target: T32, BRSK1 (Homo sapiens, UniProt Q8TDC3)
T32 construct: purchased Eurofins DiscoverX KINOMEscan
How it was run: as §1

FLT3 (R834Q) = biological target: T33, FLT3 (R834Q) (Homo sapiens, UniProt P36888, R834Q)
T33 construct: purchased Eurofins DiscoverX KINOMEscan
How it was run: as §1

JAK2 (JH1domain-cat.) = biological target: T34, JAK2 (JH1domain-cat.) (Homo sapiens, UniProt O60674)
T34 construct: JAK2 (JH1domain-cat.); purchased Eurofins DiscoverX KINOMEscan
How it was run: as §2

INSR = biological target: T35, INSR (Homo sapiens, UniProt P06213)
T35 construct: purchased Eurofins DiscoverX KINOMEscan
How it was run: as §2

TAOK2 = biological target: T36, TAOK2 (Homo sapiens, UniProt Q9UL54)
T36 construct: purchased Eurofins DiscoverX KINOMEscan
How it was run: as §1

ZAK = biological target: T37, ZAK (Homo sapiens, UniProt Q9NYL2)
T37 construct: purchased Eurofins DiscoverX KINOMEscan
How it was run: as §1

FLT3 (N841I) = biological target: T38, FLT3 (N841I) (Homo sapiens, UniProt P36888, N841I)
T38 construct: purchased Eurofins DiscoverX KINOMEscan
How it was run: as §1

`O=C1Nc2c(cc([N+](=O)[O-])c3c2CCCC3)C1=NO` [Compound 5d, 3-(Hydroxyimino)-5-nitro-1,3,6,7,8,9-hexahydro-2H-benzo[g]indol-2-one] gave an inhibition at 10 µM (FLT3 (D835H)) of 35%, an inhibition at 10 µM (CAMK2B) of 70% and an inhibition at 10 µM [1] of 89.8%. It also gave an inhibition at 10 µM (PCTK3) of 0%, an inhibition at 10 µM (CDC2L5) of 13% and an inhibition at 10 µM (IGF1R) of 0%. The inhibition at 10 µM (SRPK1) was 53%, the inhibition at 10 µM (PIK3CA (E545A)) was 30% and the inhibition at 10 µM (TNK2) was 2%. The inhibition at 10 µM (EIF2AK1) was 40%, the inhibition at 10 µM (DLK) was 23% and the inhibition at 10 µM (MAP3K4) was 15%. For the same compound, the inhibition at 10 µM (ERK4) was 0%, the inhibition at 10 µM (PIP5K2B) was 64% and the inhibition at 10 µM (CDK11) was 1%. The inhibition at 10 µM (CDK2) was 9%, the inhibition at 10 µM [2] was 0% and the inhibition at 10 µM (PDPK1) was 8%. It also gave an inhibition at 10 µM (MYLK4) of 7%, an inhibition at 10 µM (YANK1) of 11% and an inhibition at 10 µM (MLK3) of 31%. For the same compound, the inhibition at 10 µM (WNK2) was 0%, the inhibition at 10 µM (ERK1) was 0% and the inhibition at 10 µM (ABL1 (M351T)-P) was 5%. For the same compound, the inhibition at 10 µM (MEK3) was 94%, the inhibition at 10 µM (NEK9) was 32% and the inhibition at 10 µM (BRAF (V600E)) was 23%. It also gave an inhibition at 10 µM (ABL1-P) of 46%, an inhibition at 10 µM (KIT (A829P)) of 0% and an inhibition at 10 µM (TAOK3) of 65%. It also gave an inhibition at 10 µM (CDK7) of 95.8%, an inhibition at 10 µM (BRSK1) of 36% and an inhibition at 10 µM (FLT3 (R834Q)) of 10%. For the same compound, the inhibition at 10 µM (JAK2 (JH1domain-cat.)) was 42%, the inhibition at 10 µM (INSR) was 1% and the inhibition at 10 µM (TAOK2) was 37%. For the same compound, the inhibition at 10 µM (ZAK) was 14% and the inhibition at 10 µM (FLT3 (N841I)) was 0%.
